Data taken from PubChem BioAssay (NCI).
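Method: 48-hour compound exposure of cells in 96-well plates, five concentrations, linear interpolation of endpoints. GI50 = concentration required for 50% inhibition of growth. At the TGI there is no net growth.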

Tests used:
Assay in all cases: DTP human tumour cell line panel, 48 h
MDA-MB-231 breast = system: MDA-MB-231 breast
HCC-2998 colon = system: HCC-2998 colon
OVCAR-8 ovarian = system: OVCAR-8 ovarian
RPMI-8226 leukemia = system: RPMI-8226 leukemia
UO-31 renal = system: UO-31 renal
OVCAR-5 ovarian = system: OVCAR-5 ovarian
SW-620 colon = system: SW-620 colon
KM12 colon = system: KM12 colon
SR leukemia = system: SR leukemia
HS 578T breast = system: HS 578T breast

Row | Structure (SMILES) | GI50 (MDA-MB-231 breast) [µM] | TGI (MDA-MB-231 breast) [µM] | GI50 (HCC-2998 colon) [µM] | TGI (HCC-2998 colon) [µM] | GI50 (OVCAR-8 ovarian) [µM] | TGI (OVCAR-8 ovarian) [µM] | GI50 (RPMI-8226 leukemia) [µM] | TGI (RPMI-8226 leukemia) [µM] | GI50 (UO-31 renal) [µM] | TGI (UO-31 renal) [µM] | GI50 (OVCAR-5 ovarian) [µM] | TGI (OVCAR-5 ovarian) [µM] | GI50 (SW-620 colon) [µM] | TGI (SW-620 colon) [µM] | GI50 (KM12 colon) [µM] | TGI (KM12 colon) [µM] | GI50 (SR leukemia) [µM] | TGI (SR leukemia) [µM] | GI50 (HS 578T breast) [µM] | TGI (HS 578T breast) [µM]
1 | COc1ccc(-c2cc(-c3ccc(Nc4ccnc5cc(Cl)ccc45)cc3)nc(N3CCOCC3)n2)cc1 | 7.52 | > 100 | > 100 | > 100 | 4.43 | > 100 | 3.79 | > 100 | > 100 | > 100 | > 100 | > 100 | – | – | – | – | – | – | – | –
2 | Cc1cc(NCCCCNc2ccnc3cc(Cl)ccc23)nc(Nc2ccc(C(=O)N3CCCCC3)cc2)n1 | – | – | 1.82 | 4.13 | 2.34 | 5.49 | 0.239 | 1.04 | – | – | 3.04 | 9.22 | 1.46 | 3.04 | 1.91 | 4.21 | 0.24 | 0.855 | – | –
3 | N#Cc1c(-c2ccco2)cc(-c2ccc(N)cc2)[nH]c1=O | – | – | – | > 100 | – | > 100 | – | > 100 | – | > 100 | – | > 100 | – | > 100 | – | > 100 | – | > 100 | – | –
4 | C[P+](C)(C)c1ccccc1 | – | – | – | > 100 | – | > 100 | – | > 100 | – | > 100 | – | > 100 | – | > 100 | – | > 100 | – | > 100 | – | –
5 | COc1cc2c(cc1OC)C1Cc3cc(OC)c(OC)cc3N1CC2 (centres undefined) | – | – | – | > 100 | – | > 100 | – | 88 | – | 86 | – | > 100 | – | > 100 | – | > 100 | – | > 100 | – | –
6 | O=C1c2ccc3c4ccccc4n(-c4ccccc4)c3c2C(=O)N1c1ccc(Cl)cc1 | – | – | – | > 100 | – | > 100 | – | – | – | > 100 | – | > 100 | – | > 100 | – | > 100 | – | > 100 | – | –
7 | O=C1C2[C@@H](C(=O)N1c1ccc(Br)cc1)C13C(=CC2([N+](=O)[O-])[C@@H]2C(=O)N(c4ccc(Br)cc4)C(=O)[C@@H]21)c1ccccc1N3c1ccccc1 (some centres undefined) | – | – | – | > 100 | – | > 100 | – | > 100 | – | 38.7 | – | > 100 | – | > 100 | – | > 100 | – | > 100 | – | –
8 | CC(=O)[CH-]C(=O)c1ccccc1.CC(=O)[CH-]C(=O)c1ccccc1.O=S(=O)([O-])c1cc([O-])c2c([O-])cc(S(=O)(=O)[O-])cc2c1.[Na+].[Ti+4] | – | – | > 100 | > 100 | > 100 | > 100 | > 100 | > 100 | > 100 | > 100 | > 100 | > 100 | > 100 | > 100 | 30.2 | > 100 | – | – | – | –
9 | COc1cc(OC)c2sc(-c3ccc(-n4cncc4-c4cc(OC)c(OC)c(OC)c4)cc3)nc2c1 | 3.51 | > 100 | > 100 | > 100 | > 100 | > 100 | 5.39 | > 100 | 2.27 | > 100 | > 100 | > 100 | 5.96 | > 100 | 4.62 | > 100 | 3.24 | > 100 | – | –
10 | NC(CCc1ncc(C(=O)O)s1)C(=O)O (centres undefined) | – | – | – | > 100 | – | > 100 | – | > 100 | – | > 100 | – | – | – | > 100 | – | > 100 | – | – | – | –
11 | Cc1ccc(C)c(N2C(=O)C(=O)C(c3nc4ccccc4o3)/C(=N\NC(=O)c3ccccc3O)C2=O)c1 (centres undefined) | – | – | – | > 100 | – | 76.7 | – | 77.8 | – | 87.6 | – | > 100 | – | > 100 | – | – | – | 76.2 | – | –
12 | O=C1CC2CCN(C(=O)c3ccccc3)CC2CCN1 (centres undefined) | – | – | – | > 100 | – | > 100 | – | > 100 | – | > 100 | – | > 100 | – | > 100 | – | > 100 | – | > 100 | – | –
13 | Cc1ccc2[c](c1)[Sn]([c]1ccccc1)([c]1ccccc1)[c]1cc(C)ccc1N2C | – | – | 26.4 | > 100 | 57.3 | > 100 | – | – | > 100 | > 100 | 70.3 | > 100 | 18.9 | 53.7 | 29.8 | > 100 | 0.116 | – | – | –
14 | N#CC(C#N)=C1CCCOc2c1ccc1ccccc21 | – | – | > 100 | > 100 | > 100 | > 100 | 24.5 | 65.1 | > 100 | > 100 | > 100 | > 100 | > 100 | > 100 | > 100 | > 100 | – | – | 33.4 | > 100
15 | NC(=O)c1cn(Cc2ccccc2)c(=O)n1Cc1ccccc1 | – | – | – | > 100 | – | > 100 | – | > 100 | – | > 100 | – | > 100 | – | > 100 | – | > 100 | – | – | – | –
16 | COc1cc(/C=C2\CCC/C(=C\c3ccc(OCC4CO4)c(OC)c3)C2=O)ccc1OCC1CO1 (centres undefined) | – | – | 2.25 | 4.75 | 2.1 | 9.11 | – | – | 2.51 | 7.94 | 2.87 | 10.6 | 2.46 | 5.09 | 1.88 | 5.13 | 2.29 | > 100 | 4.22 | > 100
17 | O=C1C=CC(=CC=C2C=CN(CCCCCCCCCCC(=O)NCCCCCCCCCCCC(=O)O)C=C2)C=C1 | – | – | – | > 100 | – | > 100 | – | > 100 | – | > 100 | – | > 100 | – | > 100 | – | > 100 | – | > 100 | – | –
18 | CC12CCC(=O)N1c1cccnc1N2 (centres undefined) | – | – | – | > 100 | – | > 100 | – | > 100 | – | > 100 | – | > 100 | – | > 100 | – | > 100 | – | – | – | –
19 | Cc1ccc(N2C(=O)N(c3ccc(C)cc3)C3(SC=NN3C)C2=O)cc1 (centres undefined) | – | – | – | > 100 | – | > 100 | – | > 100 | – | > 100 | – | – | – | > 100 | – | > 100 | – | > 100 | – | –
20 | C[Si](C)(C)CN1C(=O)c2ccccc2C1(O)c1ccccc1 (centres undefined) | – | – | – | > 100 | – | > 100 | – | – | – | > 100 | – | > 100 | – | > 100 | – | > 100 | – | > 100 | – | –
21 | CC1COS(=O)O1 (centres undefined) | – | – | – | > 100 | – | > 100 | – | > 100 | – | > 100 | – | > 100 | – | > 100 | – | > 100 | – | > 100 | – | –
22 | C1=NC(N(Cc2ccccc2)Cc2ccccc2)N(Cc2ccccc2)N1 (centres undefined) | – | – | – | 36.4 | – | 54.5 | – | 32.9 | – | 33.9 | – | 42 | – | 49.9 | – | 31.1 | – | – | – | –
